Patent publication US9340577B2, “HLA binding motifs and peptides and their uses” (priority 1992, dated 2016)
Read-outs that look alike come from different tables or passages of the source. No end group written: not given here.

What was measured:
Assay in all cases: biochemical
DRB1*1201 = DRB1*1201 (Homo sapiens, UniProt P01903+P01911, A100R/A169T/D57E/D86V/F55L/H45Y/K41T/L162R/M171V/P40S/Q125H/Q178H/Q39Y/Q99D/R42G/S66L/T262R/V114A/V67L/W38E/Y59H/Y61H/Y89S); assay type: binding
DRB1*1302 = DRB1*1302 (Homo sapiens, UniProt P01903+P01911, A100E/A169T/K41T/L162R/M171V/P40S/Q125H/Q178H/Q39Y/Q99D/R42S/S66N/T262R/V115G/W38E/Y61H); assay type: binding
DRB4*0101 = DRB4*0101 (Homo sapiens, UniProt P01903+P13762, G164S); assay type: binding
DR7 (DRB1*0701) = DR7 (DRB1*0701) (Homo sapiens, UniProt P01903+P01911, A100R/A102G/A103Q/D57E/D86V/E43K/F76Y/K127E/L162R/M171V/P40G/Q125H/Q99D/R33Q/R42Y/R54Q/S133A/S66F/T210M/V115G/Y107V/Y59L/Y89S); assay type: binding
DRB1*0405 = DRB1*0405 (Homo sapiens, UniProt P01903+P01911, A100R/A169T/D86S/F76Y/I96L/K127E/L162R/M171V/N62H/P40V/Q125Y/R42H/S133A/S149N/S66Y/V115G/V209L/W38E); assay type: binding
DRB1*0802 = DRB1*0802 (Homo sapiens, UniProt P01903+P01911, A100R/A103L/A169T/F76Y/H45Y/I96F/K41T/L162R/M171V/P40S/Q125H/Q178H/Q39Y/Q99D/R218S/R42G/S66Y/V115G/W38E); assay type: binding
DR1 (DRB1*0101) = DR1 (DRB1*0101) (Homo sapiens, UniProt P01903+P01911, A100R/D57E/F55L/F60I/F76Y/I96L/L162R/M171V/P40L/Q125E/R42F/V115G/Y59C); assay type: binding
DR4w4 (DRB1*0401) = DR4w4 (DRB1*0401) (Homo sapiens, UniProt P01903+P01911, A100K/A169T/F76Y/I96L/K127E/L162R/M171V/N62H/P40V/Q125Y/R42H/S133A/S149N/S66Y/V115G/V209L/W38E); assay type: binding
DRB1*1501 = DRB1*1501 (Homo sapiens, UniProt P01903+P01911); assay type: binding
DRB1*1101 = DRB1*1101 (Homo sapiens, UniProt P01903+P01911, A100R/A169T/A87E/I96F/K41T/L162R/M171V/P40S/Q125H/Q178H/Q39Y/Q99D/R42S/S66Y/T262R/V115G/W38E)
DRB1*0901 = DRB1*0901 (Homo sapiens, UniProt P01903+P01911, A100R/A103E/D57H/D86V/F55Y/F60I/F76Y/I96F/K127E/L162R/M171V/P40D/Q125H/Q99R/R33Q/R42F/S133A/S66N/T210M/V115G/W38K/Y107V/Y59G/Y89S); assay type: binding
DRB5*0101 = DRB5*0101 (Homo sapiens, UniProt P01903+Q30154)

DRB1*1302, sequence (P01903 26-254 limits assumed, other chains not shown): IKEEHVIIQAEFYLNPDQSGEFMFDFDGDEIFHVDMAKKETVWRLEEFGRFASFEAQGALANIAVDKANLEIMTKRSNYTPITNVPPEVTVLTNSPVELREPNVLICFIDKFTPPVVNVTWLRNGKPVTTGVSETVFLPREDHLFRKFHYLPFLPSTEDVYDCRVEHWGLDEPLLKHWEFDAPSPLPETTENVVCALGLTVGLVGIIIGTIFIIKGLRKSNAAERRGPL
DRB1*1101, sequence (P01903 26-254 limits assumed, other chains not shown): as above

Molecule | IC50 (DRB1*1201) | IC50 (DRB1*1302) | IC50 (DRB4*0101) | IC50 (DR7 (DRB1*0701)) | IC50 (DRB1*0405) | IC50 (DRB1*0802) | IC50 (DR1 (DRB1*0101)) | IC50 (DR4w4 (DRB1*0401)) | IC50 (DRB1*1501) | IC50 (DRB1*1101) | IC50 (DRB1*0901) | IC50 (DRB5*0101) | IC50 (DRB1*1101; Binding affinity DRB1 *1101) | IC50 (DRB5*0101; Binding affinity DRB5 *0101)
CSCC[C@H](NC(=O)[C@H](CC(C)C)NC(=O)[C@H](CC(=O)O)NC(=O)[C@@H](N)Cc1c[nH]cn1)C(=O)N[C@@H](CC(C)C)C(=O)N[C@@H](CC(C)C)C(=O)N[C@@H](CCCNC(=N)N)C(=O)N[C@@H](CC(C)C)C(=O)N[C@@H](CO)C(=O)N[C@@H](CCC(=O)O)C(=O)N1CCC[C@H]1C(=O)N[C@@H](C)C(=O)N[C@@H](CCC(=O)O)C(=O)N[C@@H](CC(C)C)C(=O)N[C@H](C(=O)O)[C@@H](C)O [Peptide 68.0073] | 520 nM | – | – | – | – | – | – | – | – | – | – | – | – | –
LIKFFQGSVISFVNS [Peptide 89.0135] | – | 71 nM | 3730 nM | > 20 µM | > 20 µM | 7.98 µM | > 20 µM | > 20000 nM | > 20 µM | > 20 µM | > 20 µM | > 20 µM | – | –
CC[C@H](C)[C@H](NC(=O)[C@H](CS)NC(=O)[C@H](Cc1c[nH]cn1)NC(=O)[C@H](C)NC(=O)[C@H](C)NC(=O)[C@@H](NC(=O)[C@H](CC(C)C)NC(=O)[C@@H](NC(=O)[C@H](Cc1c[nH]c2ccccc12)NC(=O)[C@H](CCC(N)=O)NC(=O)[C@@H]1CCCN1C(=O)[C@@H](N)Cc1c[nH]cn1)C(C)C)[C@@H](C)O)C(=O)N[C@@H](CCCNC(=N)N)C(=O)N[C@@H](CC(N)=O)C(=O)N[C@@H](CCCCN)C(=O)O [Peptide 68.0064] | 5790 nM | – | – | – | – | – | – | – | – | – | – | – | – | –
CC[C@H](C)[C@H](NC(=O)[C@H](CCC(N)=O)NC(=O)[C@@H](NC(=O)[C@H](Cc1ccccc1)NC(=O)[C@H](CC(N)=O)NC(=O)[C@H](Cc1ccc(O)cc1)NC(=O)[C@H](CC(C)C)NC(=O)[C@H](Cc1ccccc1)NC(=O)[C@@H](N)CCCCN)[C@@H](C)O)C(=O)N1CCC[C@H]1C(=O)N[C@@H](Cc1c[nH]cn1)C(=O)N[C@@H](CC(C)C)C(=O)N[C@@H](C)C(=O)NCC(=O)N[C@H](C(=O)O)[C@@H](C)O [Peptide 68.0087] | 1240 nM | – | – | – | – | – | – | – | – | – | – | – | – | –
NSRLLQERGVAYINA [Peptide 68.0176] | 620 nM | – | – | – | – | – | – | – | – | – | – | – | – | –
IHFLKGCIISYVNSK [Peptide 89.0147] | – | > 20000 nM | 1360 nM | 6.49 µM | > 20 µM | > 20 µM | > 20 µM | 3840 nM | > 20 µM | – | > 20 µM | – | > 20 µM | > 20 µM
ALSVSKAKALQAIEL [Peptide 89.0170] | – | 1630 nM | > 20000 nM | 3.21 µM | 8.43 µM | > 20 µM | 0.084 µM | 281 nM | > 20 µM | – | 4.33 µM | – | > 20 µM | > 20 µM
DRGIIILLLIRFRCS [Peptide 89.0062] | – | > 20000 nM | 7560 nM | > 20 µM | 7.18 µM | 0.085 µM | > 20 µM | > 20000 nM | 14.4 µM | – | > 20 µM | – | 8.28 µM | > 20 µM
LKTVKIPNTVQVIQG [Peptide 90.0017] | – | 33 nM | > 20000 nM | 0.777 µM | 19.2 µM | > 20 µM | 8.18 µM | > 20000 nM | > 20 µM | – | > 20 µM | – | > 20 µM | > 20 µM
QQQMFLGTVKIPPTV [Peptide 89.0187] | – | 3340 nM | 1590 nM | > 20 µM | 6.33 µM | 7.29 µM | 0.743 µM | 70 nM | 1 µM | – | > 20 µM | – | 5.88 µM | > 20 µM
DIAYKYAQLADVNSN [Peptide 89.0108] | – | > 20000 nM | 295 nM | 1.02 µM | 2.2 µM | > 20 µM | 4.73 µM | 88 nM | > 20 µM | – | 10.6 µM | – | 12.6 µM | 0.15 µM
HPQWVLTAAHCLKKN [Peptide 68.0003] | 11500 nM | – | – | – | – | – | – | – | – | – | – | – | – | –
SQLLNIPETHMVIEP [Peptide 89.0102] | – | > 20000 nM | 807 nM | > 20 µM | > 20 µM | > 20 µM | > 20 µM | > 20000 nM | > 20 µM | – | > 20 µM | – | > 20 µM | > 20 µM
CC[C@H](C)[C@H](N)C(=O)N[C@@H](CC(C)C)C(=O)N[C@@H](CC(C)C)C(=O)N[C@@H](Cc1c[nH]c2ccccc12)C(=O)N[C@@H](CCC(N)=O)C(=O)N1CCC[C@H]1C(=O)N[C@H](C(=O)N1CCC[C@H]1C(=O)N[C@H](C(=O)N[C@@H](Cc1c[nH]cn1)C(=O)N[C@H](C(=O)N[C@H](C(=O)N1CCC[C@H]1C(=O)N[C@@H](CC(C)C)C(=O)N[C@@H](CO)C(=O)O)C(C)C)[C@@H](C)O)C(C)C)[C@@H](C)CC [68,0038] | 7290 nM | – | – | – | – | – | – | – | – | – | – | – | – | –
CC[C@H](C)[C@H](NC(=O)[C@H](CCCCN)NC(=O)[C@H](C)NC(=O)[C@@H]1CCCN1C(=O)[C@H](CCC(=O)O)NC(=O)[C@H](CO)NC(=O)[C@H](CC(C)C)NC(=O)[C@H](CCCNC(=N)N)NC(=O)[C@H](CC(C)C)NC(=O)[C@H](CC(C)C)NC(=O)[C@H](CCSC)NC(=O)[C@H](CC(C)C)NC(=O)[C@H](CC(=O)O)NC(=O)[C@@H](N)Cc1c[nH]cn1)C(=O)N[C@H](C(=O)O)[C@@H](C)O [Peptide 68.0011] | 84 nM | – | – | – | – | – | – | – | – | – | – | – | – | –
CSCC[C@H](NC(=O)[C@H](CC(C)C)NC(=O)[C@@H]1CCCN1C(=O)[C@@H](NC(=O)[C@@H](N)CS)[C@@H](C)O)C(=O)N[C@@H](Cc1ccc(O)cc1)C(=O)N[C@@H](CO)C(=O)N[C@@H](CC(C)C)C(=O)N[C@H](C(=O)N[C@@H](Cc1c[nH]cn1)C(=O)N[C@@H](CC(N)=O)C(=O)N[C@@H](CC(C)C)C(=O)N[C@H](C(=O)N[C@@H](CCCCN)C(=O)N[C@@H](CCC(=O)O)C(=O)O)[C@@H](C)O)C(C)C [Peptide 68.0113] | 1730 nM | – | – | – | – | – | – | – | – | – | – | – | – | –
LSQVKIPKTITVSTG [Peptide 89.0158] | – | > 20000 nM | > 20000 nM | 5.83 µM | > 20 µM | > 20 µM | 4.5 µM | 373 nM | 1.91 µM | – | 5.48 µM | – | 3.63 µM | > 20 µM
GKSYFGMSLISFLQG [Peptide 89.0056] | – | 1340 nM | 1960 nM | 0.284 µM | 1.23 µM | 6.02 µM | 0.17 µM | 1090 nM | 4.79 µM | – | 0.512 µM | – | 0.9 µM | > 20 µM
LKRFLQGIPKKNCIL [Peptide 89.0016] | – | > 20000 nM | 1700 nM | > 20 µM | > 20 µM | 3.29 µM | 0.069 µM | 944 nM | 3.62 µM | – | 7.67 µM | – | 2.54 µM | 0.0055 µM
DSQIAFQYAQLADVD [Peptide 89.0130] | – | > 20000 nM | 14 nM | > 20 µM | 9.99 µM | > 20 µM | > 20 µM | 3000 nM | > 20 µM | > 20 µM | > 20 µM | 17.1 µM | – | –
EVHVGGQVIVCPASV [Peptide 90.0015] | – | 152 nM | 389 nM | 0.187 µM | 6.78 µM | > 20 µM | 4.09 µM | 2100 nM | > 20 µM | – | 2.6 µM | – | > 20 µM | > 20 µM
